Assay results: US10544130B2, “Metallo-beta-lactamase inhibitors” (priority 2015, dated 2020)
Read-outs that look alike come from different tables or passages of the source.

Experiments:
[1] = tested on: Serratia marcescens expressing IMP-1 (CL5741); type: cell-based; conditions: with imipenem 1 μg/ml, 95% inhibition of bacterial growth
Method: Antibiotic Potentiation Activity: Determination of Synergistic Concentration
The bacterial strains tested included the clinical strains Escherichia coli expressing NDM-1 (CLB30005, CLB30016), Serratia marcescens expressing IMP-1 (CL5741), and Klebsiella pneumoniae expressing VIM-1 (IHMA599644). Inhibitor activity was measured in the presence and absence of imipenem in a 384-well microplate.
The clinical strains CLB30016, CL5741 and IHMA599644 were grown on trypticase soy agar containing 5% sheep's blood. The bacteria on agar plates were incubated at 35° C. with humidity overnight. The following day, individual colonies from each clinical strain were picked and resuspended in 5 ml saline to attain an OD600 of 0.14, 0.11, 0.15 and 0.13, for CLB30016, CL5741 and IHMA599644, respectively. These were further diluted 1:100 into 1.1× CAMHB and used to inoculate the test wells as described below.
Imipenem in 10 mM 3-(N-morpholino)propanesulfonic acid (MOPS, pH 7) was stored in single use aliquots at −80° C. […] On the day of the assay, 4 μl of antibiotic was added to 45 ul of bacteria followed by 1 μl of test compound and mixed by pipetting and with an orbital shaker. The concentration of antibiotic used in the assay was 1 μg/ml. Microplates were covered and incubated at 35° C. for 22 hours to 24 hours. At the end of the incubation, absorbance was determined using a spectrophotometer.

[2] = tested on: Pseudomonas aeruginosa PAO1 MB9798 (efflux+, IMP-1); conditions: ratio MITC95 PA 9798/MITC95 PA 9799; imipenem at 2 μg/mL
Summary of the method: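 Isogenic PAO1 pair (efflux+ MB9798, efflux− MB9799, both IMP-1) tested by microbroth MIC with fixed imipenem and/or ceftazidime, usually at CLSI breakpoint, plus fixed class A/C inhibitor against AmpC. MBL inhibitor titrated; concentration restoring susceptibility recorded and fold difference between strains taken as efflux extent.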

| Structure (SMILES) | Serratia marcescens (IMP-1) MITC95 [1] | Efflux ratio [2] | Serratia marcescens (IMP-1) MITC95 ([1]; CL5741) |
| --- | --- | --- | --- |
| C[N+]1(C)CC(NS(=O)(=O)c2ccc(-c3cccc4[nH]c(N)nc34)c(-c3nn[nH]n3)c2S(N)(=O)=O)C1.O=C([O-])O [Example 245, 3-(4-(2-Amino-1H-benzo[d]imidazol-4-yl)-2-sulfamoyl-3-(2H-tetrazol-5-yl)phenylsulfonamido)-1,1-dimethylazetidin-1-ium hydrogencarbonate] | 1.563 µM | 1.00 | – |
| Nc1nc2c(-c3ccc(S(=O)(=O)NC[C@]4(N)CCNC4)c(S(N)(=O)=O)c3-c3nn[nH]n3)cccc2[nH]1 [Example 250, (S)-4-(2-amino-1H-benzo[d]imidazol-4-yl)-N1-((3-aminopyrrolidin-3-yl)methyl)-3-(2H-tetrazol-5-yl)benzene-1,2-disulfonamide] | 0.7813 µM | 1.00 | – |
| CN1CC(NS(=O)(=O)c2ccc(-c3cccc4[nH]c(N)nc34)c(-c3nn[nH]n3)c2S(N)(=O)=O)C1 [Example 256, 4-(2-amino-1H-benzo[d]imidazol-4-yl)-N1-(1-methylazetidin-3-yl)-3-(2H-tetrazol-5-yl)benzene-1,2-disulfonamide] | 0.7813 µM | 1.00 | – |
| NCCCCNS(=O)(=O)c1ccc(-c2cccc3[nH]c(N)nc23)c(-c2nn[nH]n2)c1S(N)(=O)=O [Example 258, 4-(2-amino-1H-benzo[d]imidazol-7-yl)-N1-(4-aminobutyl)-3-(2H-tetrazol-5-yl)benzene-1,2-disulfonamide] | 0.7813 µM | 1.00 | – |
| Nc1nc2c(-c3ccc(S(=O)(=O)NC[C@H]4CCNC4)c(S(N)(=O)=O)c3-c3nn[nH]n3)cccc2[nH]1 [Example 259, (S)-4-(2-amino-1H-benzo[d]imidazol-4-yl)-N1-(pyrrolidin-3-ylmethyl)-3-(2H-tetrazol-5-yl)benzene-1,2-disulfonamide] | 0.7813 µM | 1.00 | – |
| Nc1nc2c(-c3ccc(S(=O)(=O)NC[C@@H]4CCNC4)c(S(N)(=O)=O)c3-c3nn[nH]n3)cccc2[nH]1 [Example 263, (R)-4-(2-amino-1H-benzo[d]imidazol-4-yl)-N1-(pyrrolidin-3-ylmethyl)-3-(2H-tetrazol-5-yl)benzene-1,2-disulfonamide] | 0.7813 µM | 1.00 | – |
| CC[C@H](CN)NS(=O)(=O)c1ccc(-c2cccc3[nH]c(N)nc23)c(-c2nn[nH]n2)c1S(N)(=O)=O [Example 265, (R)-4-(2-amino-1H-benzo[d]imidazol-4-yl)-N1-(1-aminobutan-2-yl)-3-(2H-tetrazol-5-yl)benzene-1,2-disulfonamide] | 0.7813 µM | 1.00 | – |
| Cn1c(N)nc2c(-c3ccc(S(=O)(=O)NC[C@@H](O)CN)c(S(N)(=O)=O)c3-c3nn[nH]n3)cccc21 [Example 308, (S)-4-(2-amino-1-methyl-1H-benzo[d]imidazol-4-yl)-N1-(3-amino-2-hydroxypropyl)-3-(2H-tetrazol-5-yl)benzene-1,2-disulfonamide] | 0.7813 µM | 1.00 | – |
| NC[C@H](CO)NS(=O)(=O)c1ccc(-c2cccc3nc(N)[nH]c23)c(-c2nn[nH]n2)c1S(N)(=O)=O [Example 427, (R)-4-(2-amino-1H-benzo[d]imidazol-4-yl)-N^1-(1-amino-3-hydroxypropan-2-yl)-3-(1H-tetrazol-5-yl)benzene-1,2-disulfonamide] | 0.7813 µM | – | – |
| Nc1nc(-c2cccc(-c3ccc(S(=O)(=O)N[C@@H]4CCNC4)c(S(N)(=O)=O)c3-c3nn[nH]n3)c2)c[nH]1 [Example 428, (R)-3′-(2-amino-1H-imidazol-4-yl)-N^4-(pyrrolidin-3-yl)-2-(2H-tetrazol-5-yl)-[1,1′-biphenyl]-3,4-disulfonamide] | 0.7813 µM | – | – |
| Nc1nc2c(-c3ccc(S(=O)(=O)N[C@@H]4C[C@H]4N)c(S(N)(=O)=O)c3-c3nnn[nH]3)cccc2[nH]1 [Example 448, 4-(2-amino-1H-benzo[d]imidazol-4-yl)-N^1-((1R,2R)-2-aminocyclopropyl)-3-(1H-tetrazol-5-yl)benzene-1,2-disulfonamide] | 1.563 µM | – | – |
| CN(CCN)S(=O)(=O)c1ccc(-c2cccc3[nH]c(N)nc23)c(-c2nn[nH]n2)c1S(N)(=O)=O [Example 449, 4-(2-amino-1H-benzo[d]imidazol-4-yl)-N^1-(2-aminoethyl)-N^1-methyl-3-(2H-tetrazol-5-yl)benzene-1,2-disulfonamide] | 1.563 µM | – | – |
| NCCNS(=O)(=O)c1ccc(-c2ccnc(CN)c2)c(-c2nn[nH]n2)c1S(N)(=O)=O [Example 461, N1-(2-Aminoethyl)-4-(2-(aminomethyl)pyridin-4-yl)-3-(2H-tetrazol-5-yl)benzene-1,2-disulfonamide] | 3.125 µM | – | – |
| Cc1cc(-c2ccc(S(=O)(=O)NC[C@@H](O)CN)c(S(N)(=O)=O)c2-c2nn[nH]n2)cnc1N [Example 468, (S)-N1-(3-amino-2-hydroxypropyl)-4-(6-amino-5-methylpyridin-3-yl)-3-(2H-tetrazol-5-yl)benzene-1,2-disulfonamide] | 0.7813 µM | – | – |
| NCCNS(=O)(=O)c1ccc(-c2ccc3sc(CN)nc3c2)c(-c2nn[nH]n2)c1S(N)(=O)=O [Example 476, N1-(2-aminoethyl)-4-(2-(aminomethyl)benzo[d]thiazol-5-yl)-3-(2H-tetrazol-5-yl)benzene-1,2-disulfonamide] | 0.7813 µM | – | – |
| C[C@H](N)CNS(=O)(=O)c1ccc(-c2ccc(N)nc2)c(-c2nn[nH]n2)c1S(N)(=O)=O [Example 479, (S)—N1-(2-aminopropyl)-4-(6-aminopyridin-3-yl)-3-(2H-tetrazol-5-yl) benzene-1,2-disulfonamide] | 0.7813 µM | – | – |
| NS(=O)(=O)c1c(S(=O)(=O)NC[C@H]2CNCCN2)ccc(-c2cccc3[nH]cnc23)c1-c1nn[nH]n1 [Example 481, (R)-4-(1H-benzo[d]imidazol-4-yl)-N1-(piperazin-2-ylmethyl)-3-(1H-tetrazol-5-yl)benzene-1,2-disulfonamide] | 1.563 µM | – | – |
| Nc1ccc(-c2ccc(S(=O)(=O)NC3CC(N)C3)c(S(N)(=O)=O)c2-c2nn[nH]n2)cn1 [Example 483, N1-((1R,3R)-3-aminocyclobutyl)-4-(6-aminopyridin-3-yl)-3-(2H-tetrazol-5-yl)benzene-1,2-disulfonamide] | 0.7813 µM | – | – |
| Nc1ccc(-c2ccc(S(=O)(=O)N3CCNCC3)c(S(N)(=O)=O)c2-c2nn[nH]n2)cn1 [Example 485, 3-(6-aminopyridin-3-yl)-6-(piperazin-1-ylsulfonyl)-2-(2H-tetrazol-5-yl)benzenesulfonamide] | 0.7813 µM | – | – |
| Nc1ccc(-c2ccc(S(=O)(=O)NC[C@@H]3CCNC3)c(S(N)(=O)=O)c2-c2nn[nH]n2)cn1 [Example 491, (R)-4-(6-aminopyridin-3-yl)-N1-(pyrrolidin-3-ylmethyl)-3-(2H-tetrazol-5-yl)benzene-1,2-disulfonamide] | 0.7813 µM | – | – |
| Nc1ccc(-c2ccc(S(=O)(=O)NCC3(O)CCNCC3)c(S(N)(=O)=O)c2-c2nn[nH]n2)cn1 [Example 492, 4-(6-aminopyridin-3-yl)-N1-((4-hydroxypiperidin-4-yl)methyl)-3-(2H-tetrazol-5-yl)benzene-1,2-disulfonamide] | 1.563 µM | – | – |
| Nc1ccc(-c2ccc(S(=O)(=O)N[C@H]3CCCNC3)c(S(N)(=O)=O)c2-c2nn[nH]n2)cn1 [Example 494, (S)-4-(6-aminopyridin-3-yl)-N1-(piperidin-3-yl)-3-(2H-tetrazol-5-yl)benzene-1,2-disulfonamide] | – | – | 1.563 µM |
| Nc1ccc(-c2ccc(S(=O)(=O)NCC3(O)CNC3)c(S(N)(=O)=O)c2-c2nn[nH]n2)cn1 [Example 495, 4-(6-aminopyridin-3-yl)-N1-((3-hydroxyazetidin-3-yl)methyl)-3-(2H-tetrazol-5-yl)benzene-1,2-disulfonamide] | – | – | 0.7813 µM |
| Cl.Cl.NCCCNS(=O)(=O)c1ccc(-c2ccc(N)nc2)c(-c2nn[nH]n2)c1S(N)(=O)=O [Example 496, N1-(3-aminopropyl)-4-(6-aminopyridin-3-yl)-3-(2H-tetrazol-5-yl)benzene-1,2-disulfonamide hydrogen chloride] | – | – | 0.7813 µM |
| CC1(NS(=O)(=O)c2ccc(-c3ccc(N)nc3)c(-c3nn[nH]n3)c2S(N)(=O)=O)CNC1.Cl.Cl [Example 497, 4-(6-aminopyridin-3-yl)-1-N-(3-methylazetidin-3-yl)-3-(2H-1,2,3,4-tetrazol-5-yl)benzene-1,2-disulfonamide hydrogen chloride] | – | – | 0.7813 µM |
